Take `CC(C)Cn1nc(-c2ccc(F)c(F)c2)cc(CN2CCNCC2)c1=O.Cl.Cl`: the melting point lay within 182.5 to 186 °C.

Regarding `CC(C)Cn1nc(-c2ccc(F)c(F)c2)cc(CN2CCN(C)CC2)c1=O.Cl.Cl`, the melting point was in the range of 242.5 to 243.4 °C.

As for `CC(C)Cn1nc(-c2ccc(F)c(F)c2)cc(CN(C)C)c1=O.Cl`, the melting point was in the range of 226.5 to 227.7 °C.

Consider `Cc1cc(-c2cc(CN3CCNCC3)c(=O)n(Cc3ccccc3)n2)ccc1F.Cl.Cl`, for which the melting point was 162.7 to 180.7 °C (dec.).

For the molecule `Cc1cc(-c2cc(CN3CCN(C)CC3)c(=O)n(Cc3ccccc3)n2)ccc1F.Cl.Cl`, the melting point is 240 to 242.5 °C (dec.).

Consider `Cc1cc(-c2cc(CN(C)C)c(=O)n(Cc3ccccc3)n2)ccc1F.Cl`, for which the melting point was in the range of 225.3 to 226 °C.

As for `Cc1cc(-c2cc(CN3CCNCC3)c(=O)n(CC=Cc3ccccc3)n2)ccc1F.Cl.Cl`, the melting point is 171.1 to 187.1 °C (dec.).

Consider `Cc1cc(-c2cc(CN3CCN(C)CC3)c(=O)n(CC=Cc3ccccc3)n2)ccc1F.Cl.Cl`, for which the melting point was 236.1 to 237.1 °C.

Molecule `Cc1cc(-c2cc(CN(C)C)c(=O)n(CC=Cc3ccccc3)n2)ccc1F.Cl` showed a melting point of 183.6 to 184.5 °C.

Consider `Cc1cc(-c2cc(CN3CCNCC3)c(=O)n(CC=Cc3ccc(Cl)cc3)n2)ccc1F.Cl.Cl`, for which the melting point is 186.7 to 197 °C (dec.).

Molecule `Cc1cc(-c2cc(CN(C)C)c(=O)n(CC=Cc3ccc(Cl)cc3)n2)ccc1F.Cl` registered a melting point of 201.3 to 201.9 °C.

Consider `CSc1ccc(-c2cc(CN3CCNCC3)c(=O)n(CC(C)C)n2)cc1.Cl.Cl`, for which the melting point is 248.5 to 253.7 °C (dec.).

`CSc1ccc(-c2cc(CN3CCN(C)CC3)c(=O)n(CC(C)C)n2)cc1.Cl.Cl` returned a melting point of 242.6 to 243.7 °C.

Take `CN1CCN(Cc2cc(-c3ccc([S+](C)[O-])cc3)nn(CC3CC3)c2=O)CC1.Cl.Cl` (centres unmarked): the melting point was 80 °C (dec.).

`CC(C)Cn1nc(-c2ccc([S+](C)[O-])cc2)cc(CN2CCN(C)CC2)c1=O.Cl.Cl` (centres unmarked): the melting point is 224.5 to 229.1 °C (dec.).

The molecule `CC(C)Cn1nc(-c2ccc([S+](C)[O-])cc2)cc(CN(C)C)c1=O.Cl` (centres unmarked) yielded a melting point of 204.2 to 206 °C.

In the case of `CN1CCN(Cc2cc(-c3ccc(S(C)(=O)=O)cc3)nn(CC3CC3)c2=O)CC1.Cl.Cl`, the melting point was 209 to 211.4 °C.

The molecule `CN(C)Cc1cc(-c2ccc(S(C)(=O)=O)cc2)nn(CC2CC2)c1=O.Cl` displayed a melting point of 239.5 to 240.7 °C.

Take `CC(C)Cn1nc(-c2ccc(S(C)(=O)=O)cc2)cc(CN2CCNCC2)c1=O.Cl.Cl`: the melting point was 222.4 to 224.2 °C.

`CC(C)Cn1nc(-c2ccc(S(C)(=O)=O)cc2)cc(CN2CCN(C)CC2)c1=O.Cl.Cl` registered a melting point of 224.5 to 228 °C.

In the case of `CC(C)Cn1nc(-c2ccc(S(C)(=O)=O)cc2)cc(CN(C)C)c1=O.Cl`, the melting point is 221.4 to 223.3 °C.

In the case of `Cc1ccc(-c2cc(CN3CCNCC3)c(=O)n(CC(C)C)n2)cc1F.Cl.Cl`, the melting point was 186.2 to 195 °C (dec.).

For the molecule `Cc1cc(-c2cc(CN3CCN(C)CC3)c(=O)n(Cc3ccc(Cl)cc3)n2)ccc1F.Cl.Cl`, the melting point was 246.4 to 249.7 °C (dec.).

For `Cc1cc(-c2cc(CN3CCN(C)CC3)c(=O)n(Cc3ccccc3Cl)n2)ccc1F.Cl.Cl`, the melting point was 191 to 202 °C (dec.).

`Cc1cc(-c2cc(CN)c(=O)n(Cc3ccccc3Cl)n2)ccc1F.Cl`: the melting point was in the range of 201.9 to 206.4 °C.

Consider `COc1ccc(-c2cc(CN3CCNCC3)c(=O)n(CC(C)C)n2)cc1F.Cl.Cl`, for which the melting point was 163 to 177 °C (dec.).

Turning to `COc1ccc(-c2cc(CN3CCN(C)CC3)c(=O)n(CC(C)C)n2)cc1F.Cl.Cl`, the melting point fell in the range of 236.9 to 237 °C.

In the case of `COc1ccc(-c2cc(CN(C)C)c(=O)n(CC(C)C)n2)cc1F.Cl`, the melting point lay in the range of 212.4 to 212.8 °C.

As for `Cc1c(-c2ccccc2)nn(CC(C)C)c(=O)c1N1CCNCC1.Cl.Cl`, the melting point was in the range of 154.3 to 159.5 °C.

For the molecule `CC(C)Cn1nc(-c2ccccc2)cc(CN2CCN(C)CC2)c1=O.Cl.Cl`, the melting point fell in the range of 243.8 to 244.3 °C.

Turning to `Cc1ccc(-c2cc(CN3CCN(C)CC3)c(=O)n(CC(C)C)n2)cc1F.Cl.Cl`, the melting point was 248.5 to 252 °C (dec.).

Molecule `CC(C)Cn1nc(-c2ccccc2)cc(CN(C)C)c1=O.Cl` registered a melting point of 221.7 to 222.3 °C.

On to `CC(C)Cn1nc(-c2ccc(C(F)(F)F)cc2)cc(CN2CCNCC2)c1=O.Cl.Cl`, for which the melting point lay in the range of 210.8 to 212.5 °C.

`Cc1c(-c2ccc(C(F)(F)F)cc2)nn(CC(C)C)c(=O)c1N1CCN(C)CC1.Cl.Cl` came in with a melting point of 249.9 to 252.8 °C.

Molecule `CC(C)Cn1nc(-c2ccc(C(F)(F)F)cc2)cc(CN(C)C)c1=O.Cl` yielded a melting point of 242.2 to 242.3 °C.

`CC(C)Cn1nc(-c2ccc(-c3ccccc3)cc2)cc(CN2CCNCC2)c1=O.Cl.Cl` showed a melting point of 226.8 to 228 °C.

Molecule `CC(C)Cn1nc(-c2ccc(-c3ccccc3)cc2)cc(CN2CCN(C)CC2)c1=O.Cl.Cl` gave a melting point of 262.2 to 263.6 °C.

The molecule `CC(C)Cn1nc(-c2ccc(-c3ccccc3)cc2)cc(CN(C)C)c1=O.Cl` registered a melting point of 243.9 to 244.1 °C.

`COc1ccc(-c2cc(CN3CCNCC3)c(=O)n(CC(C)C)n2)cc1Cl.Cl.Cl` came in with a melting point of 203.6 to 204.5 °C.

As to `COc1ccc(-c2cc(CN3CCN(C)CC3)c(=O)n(CC(C)C)n2)cc1Cl.Cl.Cl`, the melting point was in the range of 235.8 to 236.7 °C.

As to `COc1ccc(-c2cc(CN(C)C)c(=O)n(CC(C)C)n2)cc1Cl.Cl`, the melting point lay in the range of 213.6 to 214.3 °C.

For `Cc1ccc(-c2cc(CN(C)C)c(=O)n(CC(C)C)n2)cc1F.Cl` [Example 8, 4-dimethylaminomethyl-6-(3-fluoro-4-methylphenyl)-2-isobutyl-2H-pyridazin-3-one hydrochloride], the melting point was 246.5 to 248.5 °C.

The molecule `CNCc1cc(-c2ccc(OC)c(F)c2)nn(CC2CC2)c1=O` [Example 9, 2-cyclopropylmethyl-6-(3-fluoro-4-methoxyphenyl)-4-methylaminomethyl-2H-pyridazin-3-one] had a melting point of 169.1 to 170.7 °C.

Take `COc1ccc(-c2cc(CN3CCNCC3)c(=O)n(CC3CC3)n2)cc1F` [Example 20, 2-cyclopropylmethyl-6-(3-fluoro-4-methoxyphenyl)-4-(1-piperazinyl)methyl-2H-pyridazin-3-one]: the melting point lay in the range of 111.5 to 118 °C.

`Cc1ccc(-c2cc(CN)c(=O)n(CC(C)C)n2)cc1` [Example 50, 4-aminomethyl-2-isobutyl-6-(4-methylphenyl)-2H-pyridazin-3-one]: the melting point was in the range of 74.9 to 77.9 °C.

In turn, `Cc1ccc(-c2cc(CNC(CO)CO)c(=O)n(CC(C)C)n2)cc1` [Example 52, 4-(1,3-dihydroxypropan-2-yl)aminomethyl-2-isobutyl-6-(4-methylphenyl)-2H-pyridazin-3-one] returned a melting point of 134.1 to 135.2 °C.

Take `CSc1ccc(-c2cc(CN(C)C)c(=O)n(CC(C)C)n2)cc1.Cl` [Example 161, 4-dimethylaminomethyl-2-isobutyl-6-[4-(methylthio)phenyl]-2H-pyridazin-3-one hydrochloride]: the melting point is 216.8 to 218.4 °C.

The values are drawn from patent US7211577B2, “Water-soluble phenylpyridazine derivative and medicine containing the same” (Kowa Co., Ltd., priority 2003, dated 2007).
